Reference: patent publication US7094423B1, “Methods for preparation of lipid-encapsulated therapeutic agents” (INEX Pharmaceuticals Corp., priority 1999, dated 2006)

Experiments:
[1] = Trapping efficiency of oligonucleotide in liposomes after anion exchange chromatography; type: physicochemical; details: DSPC/Chol/DODAP/PEG-CerC14 liposomes; initial ATP-to-lipid ratio 0.2 mg/mg; 50 mM citrate buffer
[2] = Leakage experiments: ethanol-induced permeabilization of LUVs; type: physicochemical; details: DSPC/Chol/PEG-CerC14/DODAP liposomes, 40° C.
Experimental: Leakage experiments. Ethanol-induced permeabilization of LUVs was measured at different temperatures and as a function of the size (MW) of the entrapped solute. […] Leakage of calcein entrapped at self-quenching concentrations was followed by monitoring the dequenching of the calcein fluorescence. LUVs were prepared by hydration of a lipid film with an aqueous solution containing 75 mM calcein and 5 mM HEPES adjusted to pH 7.5 by addition of sodium hydroxide, followed by 5 freeze/thaw cycles and extrusion through 2 stacked 100 nm filters (10 passes). In the case of […] extrusion was performed at 60° C. Unentrapped calcein was exchanged against an isoosmotic HBS buffer by anion exchange chromatography on a DEAE Sepharose CL6B column. The liposome stock solution was diluted to a lipid concentration of 3 μM in HBS containing varying amounts of ethanol pre-equilibrated at 25, 40 or 60° C. The fluorescence at 520 nm was measured (excitation wavelength […], long-pass filter at 430 nm) with a Perkin Elmer LS50 Fluorimeter (Perkin Elmer) after 5 min of incubation at the corresponding temperature. […] The FITC/LRh-PE ratio was measured before and after addition of ethanol. FITC and LRh-PE fluorescence were measured at 515 nm and 590 nm with the excitation wavelength set to 485 nm and 560 nm, respectively.

| SMILES | fraction entrapped [1] | ethanol concentration at which leakage reaches a maximum [2] | ethanol concentration at which leakage starts [2] [% ethanol] |
| --- | --- | --- | --- |
| Nc1ncnc2c1ncn2[C@@H]1O[C@H](COP(=O)(O)OP(=O)(O)OP(=O)(O)O)[C@@H](O)[C@H]1O [ATP] | less than 10% |  |  |
| O=C(O)CN(CC(=O)O)Cc1cc2c(cc1O)Oc1cc(O)c(CN(CC(=O)O)CC(=O)O)cc1C21OC(=O)c2ccccc21 [calcein] |  | around 40 % ethanol | ≤ 30 |
